Test results reported in patent publication US20050153932A1, “Controlled muscle relaxation” (priority 2003, published 2005).

How the values were obtained:
[1] = tested on: neuromuscular block in a patient; conditions: endotracheal intubation; cited from earlier work
[2] = tested on: M. adductor pollicis contractions; experiment: Vecuronium-induced block of M. adductor pollicis contractions (TOF stimulation) and effect of Org 25969 in anaesthetised Rhesus monkeys; format: in vivo, Rhesus monkey; conditions: for 0.50-0.90 TOF ratio interval / 25-75% recovery index / time to 25% recovery of T1 / time to 90% recovery of T1 / time to TOF ratio 0.90: spontaneous recovery
Method: • T1: first twitch: amplitude of the first response to TOF stimulation, expressed as percentage of control T1 (%). • T4/T1 ratio: the ratio of T4 over T1 (within one TOF stimulus) expressed as decimals.
Female Rhesus monkeys were starved overnight and sedated with 10 mg·kg^−1 ketamine i.m., followed by i.v. injection of 25 mg·kg^−1 pentobarbitone sodium and subsequent infusion of 5-10 mg·kg^−1hr^−1. The animals were intubated and ventilated with a mixture of oxygen and nitrous oxide (2:3), using a ventilator. The expired CO2 level was measured using a capnograph. The tidal volume was adjusted to obtain a CO2 level of approximately 4.5%. Oxygen saturation was measured via a probe on the earlobe using a pulse oxymeter. Blood pressure was measured non-invasively with a cuff placed on the tail. The ECG was recorded and heart rate was measured. Rectal temperature was measured and body temperature was kept at 37-38° C. using a heating blanket. The right hand and right arm of the animal were fixed to a frame using surgical tape. The thumb was connected to a force transducer. A pre-load of 200-500 mN was applied. Two needle electrode were placed near the N. ulnaris and the nerve was stimulated with train-of-four pulses (pulse duration: 2 ms, train-frequency: 0.07 Hz). At the end of the experiment, the animals were allowed to recover from anesthesia. Appropriate recovery care was given to all animals. Two groups of monkeys were used to assess the reversal effects of Org 25969 against the neuromuscular blocking agents rocuronium (Esmeron®/Zemuron®) and vecuronium (Norcuron®). In the first group, animals initially received an intravenous bolus injection of a 1×ED90 dose of rocuronium bromide to induce neuromuscular block, followed by spontaneous recovery of the twitches. After complete recovery of the twitches, each group received a second and larger 5×ED90 dose of rocuronium followed by spontaneous recovery in one subgroup, whereas the other subgroup received an intravenous bolus dose of 1150 nmol·kg^−1 Org 25969 as soon as all twitches had disappeared. In the vecuronium groups of animals, the same protocol was used, but rocuronium was replaced by vecuronium. Rocuronium bromide and vecuronium bromide were dissolved in a citric acid/phosphate/mannitol buffer (pH 4.0). Org 25969 was dissolved in saline.

[3] = 5× ED90 vecuronium, spontaneous recovery subgroup

Structure (SMILES) | duration of action [1] | onset [1] | onset time ([2]; 1× ED90 vecuronium) | 0.50-0.90 TOF ratio interval ([2]; 1× ED90 vecuronium) | 25-75% recovery index ([2]; 1× ED90 vecuronium) | time to 25% recovery of T1 ([2]; 1× ED90 vecuronium) | time to 90% recovery of T1 ([2]; 1× ED90 vecuronium) | time to TOF ratio 0.90 ([2]; 1× ED90 vecuronium) | block ([2]; 1× ED90 vecuronium, Mean ± SEM, n = 4) | 0.50-0.90 TOF ratio interval ([2]; 5× ED90 vecuronium) | 25-75% recovery index ([2]; 5× ED90 vecuronium) | time to 25% recovery of T1 ([2]; 5× ED90 vecuronium) | time to 90% recovery of T1 ([2]; 5× ED90 vecuronium) | time to TOF ratio 0.90 ([2]; 5× ED90 vecuronium) | block [2, 3] | onset time [2, 3]
C[N+](C)(C)CCOC(=O)CCC(=O)OCC[N+](C)(C)C [suxamethonium] | 5 to 8 min | ~1 min | – | – | – | – | – | – | – | – | – | – | – | – | – | –
CC(=O)O[C@H]1C[C@@H]2CC[C@@H]3[C@H](CC[C@@]4(C)[C@H]3C[C@H]([N+]3(C)CCCCC3)[C@@H]4OC(C)=O)[C@@]2(C)C[C@@H]1N1CCCCC1 [vecuronium, vecuronium bromide] | – | – | 4.3 ± 0.6 min | 4.9 ± 0.5 min | 5.4 ± 0.8 min | 8.6 ± 1.0 min | 18.1 ± 1.9 min | 17.2 ± 1.6 min | 91.5 ± 1.7% | 11.8 ± 1.3 min | 9.6 ± 2.0 min | 28.6 ± 2.8 min | 44.0 ± 4.6 min | 49.0 ± 4.7 min | 100.0 ± 0.0% | 1.0 ± 0.1 min
